Experimental data taken from patent publication US20250290928A1, “METHOD, KIT AND DEVICE FOR DETECTING EXTRACELLULAR VESICLES” (priority 2022, published 2025).
No end group written: not given here. *: point of attachment. 5FAM = O=C1OC2(c3ccc(O)cc3Oc3cc(O)ccc32)c2ccc(C(=O)*)cc21; TF3 = Tide Fluor 3, fluorescent dye; TQ3 = quencher

Assays:
[1] = test system: MMP in the A549-derived extracellular vesicles; experiment: Digital detection of A549-derived extracellular vesicles through MMP activity in wells (SB substrates); format: biochemical, Human; details: for Extracellular vesicle concentration: at a concentration of x1, 50 fL; for Expected value λ / Number of positives / Positive ratio: Example 36, EV 5 μg/mL, reporter 5 μM, 30° C.
Experimental: (§1) The concentration of the solution is 10 μg/mL.
50 μL of each of the MMP detection solutions was added to 50 μL of the sample to provide a reaction solution for wells.

[2] = test system: MMP in the MDA-MB-231-derived extracellular vesicles; experiment: Digital detection of MDA-MB-231-derived extracellular vesicles through MMP activity in wells (SB substrates); format: biochemical, Human; details: for Expected value λ / Number of positives / Positive ratio: 6 h
Experimental: The concentration of the solution is 10 μg/mL. […] The solution was further diluted 2-fold to prepare a standard sample at a concentration of x1/4, further diluted 3-fold to prepare a standard sample at a concentration of x1/12, and further diluted 3-fold to prepare a standard sample at a concentration of x1/36. Thus, the standard samples with four concentrations were prepared.
In addition, 1 mM Alexa Fluor 647 was used as a standard fluorescent substance, and each of the MMP14 detection solutions contained the standard fluorescent substance at a final concentration of 2 μM.
(§2) 50 μL of each of the MMP detection solutions was added to 50 μL of each of the samples, a reaction was performed at 30° C., and MMP activity was evaluated.

[3] = test system: MMP in the A549-derived extracellular vesicles; experiment: Evaluation of MMP activity of A549-derived extracellular vesicles with 96-well plate (SensoLyte 520 MMP Substrate Sampler Kit); format: biochemical, Human; details: Example 34, EV 4 μg/mL, reporter 5 μM, buffer (4)
Experimental: The MMP14 activity was evaluated with a 96-well plate (manufactured by Thermo Fisher Scientific Inc., model number: 137101). A fluorescence intensity was measured with a fluorescence plate reader (Synergy MX, manufactured by BioTek Instruments, Inc.) at […] every 5 min for 1 hour. For measurement wavelengths, an excitation wavelength of 485±20 nm and a fluorescence wavelength of 528±20 nm were used.
(§3) 50 μL of the MMP detection solution was added to 50 μL of each of the samples, a reaction was performed at 30° C., and MMP activity was evaluated.

[4] = test system: MMP in the MDA-MB-231-derived extracellular vesicles; experiment: Evaluation of MMP activity of MDA-MB-231-derived extracellular vesicles with 96-well plate (SensoLyte 520 MMP Substrate Sampler Kit); format: biochemical, Human; details: for Fluorescence change after 2 hours of reaction at 30° C.: MP, EV 3.3 μg/mL
Experimental: as §3, §2

[5] = target: T1, MMP14 in the MDA-MB-231-derived extracellular vesicles (Homo sapiens, UniProt P50281); experiment: Digital detection of MDA-MB-231-derived extracellular vesicles through MMP14 activity in wells (microcompartments); format: biochemical; details: for Expected value λ / Number of positives / Positive ratio: Example 42, EV 2.5 μg/mL, reporter 5 μM, 30° C., TRITC filter; for Expected value λ (×1) / Extracellular vesicle concentration: single reporter; for Expected value λ (×1): at EV concentration x1; for Extracellular vesicle concentration: at x1, from λ (×1) and 50 fL microcompartment
T1 construct: in terms of intact MMP14 with a molecular weight of 70 kDa
Experimental: The concentration of the solution is 6.7 μg/mL.
100 μL of the MMP14 detection solution was added to 100 μL of the sample to provide a reaction solution for wells. […] 100 μL of 200 μL of the prepared reaction solution for wells was used in the measurement of MMP14 activity with a 96-well plate.
Next, the wells were filled with the reaction solution by leaving the well array 200 to stand under reduced pressure to degas the space 205. After that, the space 205 was fed with hydrophobic solvents to be sealed. Fluorinated oils AsahiKlin AE-3000 (manufactured by AGC Inc.) and Fomblin Y-25 (manufactured by Solvay S.A.) were used as the hydrophobic solvents. A fluorinated oil Simoa (trademark) SR-X Sealing Oil: 102767 (manufactured by Quanterix Corporation) was further used as another hydrophobic solvent.
Well diameter: 4.25 μm Well depth: 3.25 μm Well capacity: 50 fL Number of wells in array: 239,000 Array range: 3 mm×4 mm
The concentration of the solution is 20 μg/mL. […] The concentration of the solution was set to x1, and 10-fold serial dilution was performed to prepare standard samples with five concentrations.
Next, the wells were filled with the reaction solution by leaving the well array 200 to stand under reduced pressure to degas the space 205. After that, the space 205 was fed with hydrophobic solvents to be sealed.
The concentration of the solution is 20 μg/mL. […] The concentration of the solution was set to x1, and 3-fold serial dilution was performed to prepare standard samples with three concentrations.
The concentration of the solution is 20 μg/mL. […] The concentration of the solution was set to x1, and 2-fold serial dilution was performed to prepare standard samples with four concentrations.
The concentration of the solution is 5 μg/mL.
50 μL of the MMP14 detection solution was added to 50 μL of the sample to provide a reaction solution for wells.
50 μL of each of the MMP14 detection solutions was added to 50 μL of the sample to provide a reaction solution for wells.
The concentration of the solution is 6.7 µg/mL.

[6] = target: T1, MMP14 in the MDA-MB-231-derived extracellular vesicles; experiment: Evaluation of MMP14 activity of MDA-MB-231-derived extracellular vesicles with 96-well plate; format: biochemical
Experimental: A relative fluorescence unit difference ΔRFU was calculated by subtracting the measured value of the sample for BG measurement from the measured value of each of the samples.
The concentration of the solution is 41.7 μg/mL. The concentration of the solution was set to x1, and 2-fold serial dilution was performed to prepare standard samples with six concentrations.
50 μL of the MMP14 detection solution was added to 50 μL of each of the samples, a reaction was performed at 37° C., and MMP14 activity was evaluated.
as §1
50 μL of each of the MMP14 detection solutions was added to 50 μL of each of the samples, a reaction was performed at 37° C., and MMP14 activity was evaluated. […]
The concentration of the solution is 20 μg/mL. The concentration of the solution was set to x1, and 3-fold serial dilution was performed to prepare standard samples with three concentrations.
The concentration of the solution is 8 μg/mL.
50 μL of each of the MMP14 detection solutions was added to 50 μL of the sample, a reaction was performed at 37° C., and MMP14 activity was evaluated. […]
50 μL of the MMP14 detection solution was added to 50 μL of each of the samples, a reaction was performed at 30° C., and MMP14 activity was evaluated.
The MMP14 activity of the extracellular vesicles was evaluated with a 96-well plate (137101). A fluorescence intensity was measured with a fluorescence plate reader (Synergy) at 30° C. every 5 minutes for 2 hours. For measurement wavelengths, an excitation wavelength of 545±20 nm and a fluorescence wavelength of 588±20 nm were used. A relative fluorescence unit difference (ΔRFU) was calculated by subtracting the measured value of the sample for BG measurement from the measured value of each of the samples.
50 μL of each of the MMP14 detection solutions was added to 50 μL of each of the samples, a reaction was performed at 30° C., and MMP14 activity was evaluated.

[7] = Example 35, 30° C., EV 0 (free of extracellular vesicles, pseudopositive)
[8] = Example 35, 30° C., EV 1/4 a.u.
[9] = Example 35, 30° C., EV 1/12 a.u.
[10] = Example 35, 30° C., EV 1/36 a.u.
[11] = Example 35, reporter 5 μM, 30° C., EV 1/2 a.u. (5 μg/mL in reaction solution)

QXL520-Pro-Leu-Ala-Leu-Trp-Ala-Arg-Lys(5-FAM)-NH2 (QXL520-PLALWARK(5FAM)-NH2) [SB2]
Expected value λ (×1) ([1]; Example 36, 4 hr): 0.1343
Extracellular vesicle concentration ([1]; Example 36, 4 hr): 2.685e+09 mL⁻¹
Expected value λ (×1) ([1]; Example 36, 24 hr): 0.00799
Extracellular vesicle concentration ([1]; Example 36, 24 hr): 1.599e+08 mL⁻¹
Expected value λ ([1]; 4 hr): 0.06712
Number of positives ([1]; 4 hr): 1,823
Positive ratio ([1]; 4 hr): 0.06492
Expected value λ ([1]; 24 hr): 0.004
Number of positives ([1]; 24 hr): 112
Positive ratio ([1]; 24 hr): 0.00399
Expected value λ [2, 7]: 3.56E−05
Number of positives [2, 7]: 1
Positive ratio [2, 7]: 3.56E−05
Expected value λ [2, 8]: 0.3545
Number of positives [2, 8]: 8,382
Positive ratio [2, 8]: 0.2985
Expected value λ [2, 9]: 0.1011
Number of positives [2, 9]: 2,699
Positive ratio [2, 9]: 0.09612
Expected value λ [2, 10]: 0.02931
Number of positives [2, 10]: 811
Positive ratio [2, 10]: 0.02888
Extracellular vesicle concentration ([2]; Example 35, 6 h, at a concentration of x1, 50 fL): 5.3e+10 mL⁻¹
Expected value λ (×1) ([2]; Example 35, 6 h, from power approximation equation): 2.6406
Expected value λ [2, 11]: 1.326
Number of positives [2, 11]: 20,623
Positive ratio [2, 11]: 0.7344
Fluorescence change after 1 hour of reaction at 30° C. [3]: 1,154 ΔRFU
Fluorescence change after 1 hour of reaction at 30° C. ([4]; Example 34, EV 4 μg/mL, reporter 5 μM, buffer (4)): 32,088 ΔRFU
Fluorescence change after 2 hours of reaction at 30° C. ([4]; 1.25 μM with 1.25 μM Custom #2T): 21,733 ΔRFU
Fluorescence change after 2 hours of reaction at 30° C. ([4]; 5 μM with 5 μM Custom #2T): 31,832 ΔRFU

TF3-GGPLGLAGGK(TQ3) [Custom #2TF3]
Expected value λ ([5]; 4 hr): 0.1432
Number of positives ([5]; 4 hr): 3,746
Positive ratio ([5]; 4 hr): 0.1334
Expected value λ ([5]; 24 hr): 0.1447
Number of positives ([5]; 24 hr): 3,783
Positive ratio ([5]; 24 hr): 0.1347
Expected value λ (×1) ([5]; reaction 4 hr): 0.5727
Extracellular vesicle concentration ([5]; reaction 4 hr): 1.1454e+10 mL⁻¹
Expected value λ (×1) ([5]; reaction 24 hr): 0.5788
Extracellular vesicle concentration ([5]; reaction 24 hr): 1.1576e+10 mL⁻¹
Fluorescence change after 2 hours of reaction at 30° C. ([6]; Example 41, EV 5 μg/mL, reporter 5 μM, buffer (4), excitation 545±20 nm, fluorescence 588±20 nm): 3,791 ΔRFU
Fluorescence change after 2 hours of reaction at 30° C. ([6]; MP, 2.5 μM Custom #2TF3 with 2.5 μM Custom #11): 313 ΔRFU
Fluorescence change after 2 hours of reaction at 30° C. ([6]; MP, 2.5 μM Custom #2TF3 with 2.5 μM Custom #12): 319 ΔRFU
Fluorescence change after 2 hours of reaction at 30° C. ([6]; MP, 2.5 μM Custom #2TF3 with 2.5 μM Custom #13): 452 ΔRFU
Fluorescence change after 2 hours of reaction at 30° C. ([6]; MP, 2.5 μM Custom #2TF3 with 2.5 μM Custom #14): 397 ΔRFU
Fluorescence change after 2 hours of reaction at 30° C. ([6]; MP, 2.5 μM Custom #2TF3 with 2.5 μM Custom #15): 551 ΔRFU
Fluorescence change after 2 hours of reaction at 30° C. ([6]; MP, 2.5 μM Custom #2TF3 with 2.5 μM Custom #16): 1,085 ΔRFU
Fluorescence change after 2 hours of reaction at 30° C. ([6]; MP, 5 μM Custom #2TF3 with 1.25 μM Custom #11): 772 ΔRFU
Fluorescence change after 2 hours of reaction at 30° C. ([6]; MP, 5 μM Custom #2TF3 with 1.25 μM Custom #12): 618 ΔRFU
Fluorescence change after 2 hours of reaction at 30° C. ([6]; MP, 5 μM Custom #2TF3 with 1.25 μM Custom #13): 814 ΔRFU
Fluorescence change after 2 hours of reaction at 30° C. ([6]; MP, 5 μM Custom #2TF3 with 1.25 μM Custom #14): 714 ΔRFU
Fluorescence change after 2 hours of reaction at 30° C. ([6]; MP, 5 μM Custom #2TF3 with 1.25 μM Custom #15): 1,023 ΔRFU
Fluorescence change after 2 hours of reaction at 30° C. ([6]; MP, 5 μM Custom #2TF3 with 1.25 μM Custom #16): 1,857 ΔRFU
